Patent publication US11542235B2, “Herbicidal 3-azaspiro[5.5] undecane-8, 10-dione compounds” (SYNGENTA PARTICIPATIONS AG, priority 2018, dated 2023)

What was measured:
Type in all cases: in vivo
Lolium perenne (LOLPE) = assay: Glasshouse herbicidal test, pre- and post-emergence, Lolium perenne; settings: 250 g/h, evaluated after 13 days, five point scale; for percentage damage caused to the plant, LOLPE POST: post-emergence; for percentage damage caused to the plant, LOLPE PRE: pre-emergence
Description: (§1) Seeds of a variety of test species are sown in standard soil in pots (Lolium perenne (LOLPE), Setaria faberi (SETFA), Alopecurus myosuroides (ALOMY), Echinochloa crus-galli (ECHCG), Avena fatua (AVEFA)). After cultivation for one day (pre-emergence) or after 8 days cultivation (post-emergence) under controlled conditions in a glasshouse (at 24/16° C., day/night; 14 hours light; 65% humidity), the plants are sprayed with an aqueous spray solution derived from the formulation of the technical active ingredient in acetone/water (50:50) solution containing 0.5% Tween 20 (polyoxyethelyene sorbitan monolaurate, CAS RN 9005-64-5). Compounds are applied at […]. The test plants are then grown in a glasshouse under controlled conditions in a glasshouse (at 24/16° C., day/night; 14 hours light; 65% humidity) and watered twice daily. After 13 days for pre and post-emergence, the test is evaluated for the percentage damage caused to the plant. The biological activities are shown in the following table on a five point scale (5=80-100%; 4=60-79%; 3=40-59%; 2=20-39%; 1=0-19%).

Avena fatua (AVEFA) = assay: Glasshouse herbicidal test, pre- and post-emergence, Avena fatua; settings: 250 g/h, evaluated after 13 days, five point scale; for percentage damage caused to the plant, AVEFA POST: post-emergence; for percentage damage caused to the plant, AVEFA PRE: pre-emergence
Description: as §1

[1] = test system: Echinochloa crus-galli (ECHCG); assay: Glasshouse herbicidal test, pre- and post-emergence, Echinochloa crus-galli; settings: 250 g/h, evaluated after 13 days, five point scale; for percentage damage caused to the plant, ECHCG POST: post-emergence; for percentage damage caused to the plant, ECHCG PRE: pre-emergence
Description: as §1

[2] = test system: Alopecurus myosuroides (ALOMY); assay: Glasshouse herbicidal test, pre- and post-emergence, Alopecurus myosuroides; settings: 250 g/h, evaluated after 13 days, five point scale; for percentage damage caused to the plant, ALOMY POST: post-emergence; for percentage damage caused to the plant, ALOMY PRE: pre-emergence
Description: as §1

Setaria faberi (SETFA) = assay: Glasshouse herbicidal test, pre- and post-emergence, Setaria faberi; settings: 250 g/h, evaluated after 13 days, five point scale; for percentage damage caused to the plant, SETFA POST: post-emergence; for percentage damage caused to the plant, SETFA PRE: pre-emergence
Description: as §1

CC#Cc1cc(C)c(C2C(=O)CC3(CCN(C(=O)C(F)(F)C(F)(F)F)CC3)CC2=O)c(C)c1 [Compound A26]
5 (5=80-100%): percentage damage caused to the plant, LOLPE POST (Lolium perenne (LOLPE)) | percentage damage caused to the plant, LOLPE PRE (Lolium perenne (LOLPE)) | percentage damage caused to the plant, AVEFA POST (Avena fatua (AVEFA)) | percentage damage caused to the plant, AVEFA PRE (Avena fatua (AVEFA)) | percentage damage caused to the plant, ECHCG POST [1] | percentage damage caused to the plant, ECHCG PRE [1] | percentage damage caused to the plant, ALOMY POST [2] | percentage damage caused to the plant, ALOMY PRE [2] | percentage damage caused to the plant, SETFA POST (Setaria faberi (SETFA)) | percentage damage caused to the plant, SETFA PRE (Setaria faberi (SETFA))

CC#Cc1cc(C)c(C2=C(OC(=O)Oc3ccccc3)CC3(CCN(C(C)=O)CC3)CC2=O)c(C)c1 [Compound P9]
5 (5=80-100%): percentage damage caused to the plant, LOLPE POST (Lolium perenne (LOLPE)) | percentage damage caused to the plant, LOLPE PRE (Lolium perenne (LOLPE)) | percentage damage caused to the plant, AVEFA POST (Avena fatua (AVEFA)) | percentage damage caused to the plant, AVEFA PRE (Avena fatua (AVEFA)) | percentage damage caused to the plant, ECHCG PRE [1] | percentage damage caused to the plant, ALOMY POST [2] | percentage damage caused to the plant, ALOMY PRE [2] | percentage damage caused to the plant, SETFA POST (Setaria faberi (SETFA)) | percentage damage caused to the plant, SETFA PRE (Setaria faberi (SETFA))

CC#Cc1cc(C)c(C2C(=O)CC3(CCN(C(=O)C(C)(F)F)CC3)CC2=O)c(C)c1 [Compound A22]
5 (5=80-100%): percentage damage caused to the plant, LOLPE POST (Lolium perenne (LOLPE)) | percentage damage caused to the plant, LOLPE PRE (Lolium perenne (LOLPE)) | percentage damage caused to the plant, AVEFA POST (Avena fatua (AVEFA)) | percentage damage caused to the plant, AVEFA PRE (Avena fatua (AVEFA)) | percentage damage caused to the plant, ECHCG POST [1] | percentage damage caused to the plant, ECHCG PRE [1] | percentage damage caused to the plant, ALOMY POST [2] | percentage damage caused to the plant, ALOMY PRE [2] | percentage damage caused to the plant, SETFA POST (Setaria faberi (SETFA)) | percentage damage caused to the plant, SETFA PRE (Setaria faberi (SETFA))

CC#Cc1cc(C)c(C2C(=O)CC3(CCN(C(=O)CC(F)(F)F)CC3)CC2=O)c(C)c1 [Compound A25]
5 (5=80-100%): percentage damage caused to the plant, LOLPE POST (Lolium perenne (LOLPE)) | percentage damage caused to the plant, LOLPE PRE (Lolium perenne (LOLPE)) | percentage damage caused to the plant, AVEFA POST (Avena fatua (AVEFA)) | percentage damage caused to the plant, AVEFA PRE (Avena fatua (AVEFA)) | percentage damage caused to the plant, ECHCG POST [1] | percentage damage caused to the plant, ECHCG PRE [1] | percentage damage caused to the plant, ALOMY POST [2] | percentage damage caused to the plant, ALOMY PRE [2] | percentage damage caused to the plant, SETFA POST (Setaria faberi (SETFA)) | percentage damage caused to the plant, SETFA PRE (Setaria faberi (SETFA))

CC#Cc1cc(C)c(C2=C([O-])CC3(CCN(C(C)=O)CC3)CC2=O)c(C)c1.[Na+] [Compound A18]
5 (5=80-100%): percentage damage caused to the plant, LOLPE POST (Lolium perenne (LOLPE)) | percentage damage caused to the plant, LOLPE PRE (Lolium perenne (LOLPE)) | percentage damage caused to the plant, AVEFA POST (Avena fatua (AVEFA)) | percentage damage caused to the plant, AVEFA PRE (Avena fatua (AVEFA)) | percentage damage caused to the plant, ECHCG POST [1] | percentage damage caused to the plant, ECHCG PRE [1] | percentage damage caused to the plant, ALOMY POST [2] | percentage damage caused to the plant, ALOMY PRE [2] | percentage damage caused to the plant, SETFA POST (Setaria faberi (SETFA)) | percentage damage caused to the plant, SETFA PRE (Setaria faberi (SETFA))

CC#Cc1cc(C)c(C2C(=O)CC3(CCN(C(=O)C(C)(Cl)Cl)CC3)CC2=O)c(C)c1 [Compound A27]
5 (5=80-100%): percentage damage caused to the plant, LOLPE POST (Lolium perenne (LOLPE)) | percentage damage caused to the plant, LOLPE PRE (Lolium perenne (LOLPE)) | percentage damage caused to the plant, AVEFA POST (Avena fatua (AVEFA)) | percentage damage caused to the plant, AVEFA PRE (Avena fatua (AVEFA)) | percentage damage caused to the plant, ECHCG POST [1] | percentage damage caused to the plant, ECHCG PRE [1] | percentage damage caused to the plant, ALOMY POST [2] | percentage damage caused to the plant, ALOMY PRE [2] | percentage damage caused to the plant, SETFA POST (Setaria faberi (SETFA)) | percentage damage caused to the plant, SETFA PRE (Setaria faberi (SETFA))

CC#Cc1cc(C)c(C2=C(OC(=O)SC(C)C)CC3(CCN(C(C)=O)CC3)CC2=O)c(C)c1 [Compound P14]
5 (5=80-100%): percentage damage caused to the plant, LOLPE POST (Lolium perenne (LOLPE)) | percentage damage caused to the plant, LOLPE PRE (Lolium perenne (LOLPE)) | percentage damage caused to the plant, AVEFA POST (Avena fatua (AVEFA)) | percentage damage caused to the plant, AVEFA PRE (Avena fatua (AVEFA)) | percentage damage caused to the plant, ECHCG POST [1] | percentage damage caused to the plant, ECHCG PRE [1] | percentage damage caused to the plant, ALOMY POST [2] | percentage damage caused to the plant, ALOMY PRE [2] | percentage damage caused to the plant, SETFA POST (Setaria faberi (SETFA)) | percentage damage caused to the plant, SETFA PRE (Setaria faberi (SETFA))
